Reference: the NIST ThermoML archive (doi:10.1021/je3009123)

Legend:
[1] = mn = molality of the nth substance listed, in mol/kg; settings: 100 kPa, Liquid; for speed of sound: Linear variable-path acoustic interferometer; for mass density: Pycnometric method
[2] = refractive index (Na D-line) (dimensionless); mn = molality of the nth substance listed, in mol/kg; settings: 100 kPa, Liquid, Standard Abbe refractometry

CC1NC(=O)C(C)NC1=O (stereo not given) [3,6-dimethyl-2,5-piperazinedione] + O
m1 = 0.05
Settings | mass density, [1] [kg/m3] | refractive index, [2] | speed of sound, [1] [m/s]
293.15 K | 999.9 | 1.3351 | 1499.7
298.15 K | 998.82 | 1.3344 | 1509.5
303.15 K | 997.48 | 1.3337 | 1521.1
308.15 K | 996.18 | 1.3331 | 1527.9
313.15 K | 994.84 | 1.3324 | 1535.9

[Cl][Co][Cl] [cobalt chloride] + O
m1 = 0.1
Settings | mass density, [1] [kg/m3] | refractive index, [2] | speed of sound, [1] [m/s]
293.15 K | 1014 | 1.3373 | 1502.5
298.15 K | 1013 | 1.3368 | 1512
303.15 K | 1011.84 | 1.3361 | 1524
308.15 K | 1010.16 | 1.3356 | 1533.9
313.15 K | 1007.89 | 1.335 | 1541.7
